The subject of data set [1] is PC-12 cells. Description: PC-12 MTT reduction assay. It counts as cell-based. The settings on record: for MTT reduction: PC-12 cells. How it is done: PC-12 cells were plated at 30,000 cells/well and allowed to grow overnight at 37° C./5% CO2. Soluble Aβ oligomers or vehicle were added to cells at concentrations of 1 μM and 5 μM. After a four hour incubation at 37° C./5% CO2, the MTT reduction assay was performed (Lambert et al., 2001, J. Neurochem. 79, 595-605). Briefly, MTT (10 μL, 5 mg/mL) was added to each well and allowed to incubate for four hours. A solubilization buffer (100 μL, 10% SDS in 0.01 N HCl) was added and the plate was incubated at 37° C./5% CO2 overnight. The assay was then quantified at 595 nm on a Tecan Spectrafluor Plus plate reader (Tecan Systems, San Jose, Calif.).
In this experiment, Aβ42 was prepared at concentrations of 1 mM, 850 μM, 650 μM, 450 μM, 250 μM and 100 μM in 50 mM phosphate pH 9.0 buffer as described in the Example 8. After 7 days of incubation at 4° C., samples were tested by the MTT assay to determine bioactivity.
Background: Tetrazolium dyes change colour on reduction, which living cells bring about.

Data set [2] in a line: SDS-PAGE analysis of glutaraldehyde cross-linked samples (oligomer formation and storage stability). Type of data set: physicochemical. How it is done:
The soluble Aβ oligomers were cross-linked with glutaraldehyde, incubated for 10 minutes at room temperature and then quenched with 1M glycine, 1M Tris-HCl pH 7.5. Cross-linked samples were then diluted to a final concentration of 0.02 μg/μL, in Tris-glycine SDS sample buffer. For analysis, 0.28 μg Aβ (nominal concentration) in either monomeric or oligomeric form was separated by electrophoresis at 125V for about 100 minutes using a 4% to 20% tris-glycine gel (Invitrogen, Carlsbad, Calif.). Gels were then silver stained to visualize the size distribution of the soluble Aβ oligomers. For glutaraldehyde concentration optimization, HFIP-dried Aβ42 or HFIP-dried Aβ40 was solubilized in DMSO (20 mg/mL, 4.4 mM), added to 50 mM phosphate, pH 9.0, to a final concentration of 1.8 mg/mL (400 μM) and incubated at 4° C. overnight, protected from light. […]
As set forth above in Examples 1-4, Aβ42 forms soluble Aβ oligomers in 50 mM phosphate, pH 9.0 buffer during storage at 2° C. to 8° C. However, the optimal concentration for formation, biological activity and storage stability of these oligomeric species during storage was not determined. […] These cross-linked species were not disrupted in the presence of SDS, and therefore, the appropriate size distribution could be determined by SDS-PAGE. […]

Regarding Aβ peptide (1-42) [Aβ42], the MTT reduction entry in data set [1] (stock concentrations 450 μM to 650 μM in 50 mM phosphate pH 9.0, 7 days at 4° C., test concentration 5 μM, 4 h incubation) is given as “about 55%”; in data set [1] (stock concentrations below 450 μM and above 650 μM in 50 mM phosphate pH 9.0, 7 days at 4° C., tested at 1 μM and 5 μM) it was 80-105%. Also, the bioactivity after storage result in data set [1] (stock concentrations of 450 μM to 650 μM in 50 mM phosphate, pH 9.0 buffer, storage at 2-8° C.) was “remain bioactive for up to seven days”. Further, the “storage stability of oligomeric (150 kDa) species” value in data set [2] (stock concentration 450 μM in 50 mM phosphate, pH 9.0 buffer, 1, 4 and 7 days at 4° C., 0.5% glutaraldehyde cross-linking) was “can be stored for seven days at 4 °C”.

With “Aβ40: HFIP-dried Aβ40 monomer peptide, solubilized in DMSO and incubated in 50 mM phosphate, pH 9.0 [reference compound]”, in data set [2] (400 μM in 50 mM phosphate, pH 9.0, 24 hour incubation at 4° C.), the oligomer formation result is “primarily stays monomeric and does not form oligomers”.

The record behind these values is patent publication US20100240868A1, “Composition and Method for a Producing Stable Amyloid Beta Oligomers of High Molecular Weight” (priority 2005, published 2010).
